Where two headings read alike, the source gives them in different places.
Experiment: Pharmacokinetics of omacetaxine in orthotopic glioblastoma PDX and naïve NOD/SCID mice (LC-MS/MS of plasma, brain, liver)
Assay type: in vivo, mouse
Protocol: An amount of 10 μL medium samples was vortex-mixed with 30 μL of acetonitrile: formic acid (100:1 v/v) containing 100 nM RO-3306 Internal Standard). After centrifugation, the supernatant was 5-fold diluted in water. OMA concentrations were measured using an LC-MS/MS system that consisted of an UltiMate 3000 LC System (Dionex, Sunnyvale, CA, USA) and an API 4000 mass spectrometer (Sciex, Framingham, MA, USA). Samples were analyzed using a ZORBAX Extend-C18 column (Agilent, Santa Clara, CA, USA), preceded by a Security-guard C18 pre-column (Phenomenex, Utrecht, The Netherlands). Elution was performed using a mixture of mobile phase A (0.1% formic acid in water (v/v)) and mobile phase B (methanol) in a 5 min gradient from 20% to 95% B, followed by 95% B that was maintained for 3 min and then re-equilibrated at 20% B. Multiple reaction monitoring parameters were 546.6/298.1 (OMA) and 352.1/186.0 (RO-3306).
Non-obese diabetic severe combined immunodeficient (NOD/SCID) female mice 6–8 weeks of age were used for this study. All experiments were ethically approved by the local Animal Experiments Committee. Patient-derived glioblastoma cell lines were cultured under serum-free conditions prior to injection into the mice. Mice were stereotactically injected with GS607, GS832 (both 2.5 × 10^5 in 5 μL) or GBM8 (1 × 10^5 in 3 μL) in the right striatum 1.0 mm anteroposterior (AP), 2.0 mm medio lateral (ML) and −2.5 mm dorsal ventral (DV) of bregma suture under aseptic conditions. Mice were monitored daily for signs of persistent abnormal behavior and/or breathing, weight loss >20% and development of neurological symptoms such as convulsions, seizures and/or hemiparesis. Mice were euthanized and the mouse brains harvested for histological and LC/MS/MS analysis.
A single dose of 1.5 mg/kg of OMA was administered s.c. to glioblastoma-bearing NOD/SCID and naïve non-tumor-bearing mice. Mice received OMA prior to the timepoint drug delivery experiment, ensuring the presence of significant tumor masses. For GS607, this was at 78 days; for GS832 at 90 days; and for GBM8 at 46 days post-tumor implantation, based on previous survival experiments. Blood samples were collected at 15 min, 30 min, 60 min, 120 min and 240 min via the tail vein and/or submandibular vein and placed in EDTA tubes. Mice were euthanized at 60 min, 120 min or 240 min with cervical dislocation. Brains and livers were surgically collected and snap-frozen in liquid nitrogen (N2). To preserve the drug stability in plasma mouse blood, samples were centrifuged immediately upon collection. Plasma was separated by centrifugation at 3500 rpm at 4 °C for 15 min. Both plasma and tissue samples were stored at −80 °C until LC-MS/MS analysis.

[1] = GBM8 PDX, 60 min, single s.c. dose 1.5 mg/kg, n = 6, 1.5 mg/kg
[2] = GS607-PDX, 60 min, single s.c. dose 1.5 mg/kg, n = 2 blood samples, 1.5 mg/kg
[3] = GS607-PDX, 60 min, single s.c. dose 1.5 mg/kg, n = 4, 1.5 mg/kg
[4] = GS832-PDX, 60 min, single s.c. dose 1.5 mg/kg, n = 5, 1.5 mg/kg
[5] = GS832-PDX, single s.c. dose 1.5 mg/kg

COC(=O)C[C@](O)(CCCC(C)(C)O)C(=O)O[C@@H]1C(OC)=C[C@]23CCCN2CCc2cc4c(cc2[C@H]13)OCO4 [OMA, Omacetaxine mepesuccinate]
[Brain] ± SD, right hemisphere (tumor bearing) [1]: 45.0 ± 20.0 ng/g
[Liver] ± SD [1]: 998.2 ± 254.3 ng/g
[Plasma] ± SD [1]: 391.3 ± 57.5 ng/mL
[Brain]/[Plasma] Ratio ± SD (GBM8 PDX, 60 min, single s.c. dose 1.5 mg/kg, 1.5 mg/kg): 0.11 ± 0.04
[Brain]/[Plasma] Ratio ± SD [2]: 0.23 ± 0.01
[Plasma] ± SD [2]: 88.4 ± 9.0 ng/mL
[Brain] ± SD, right hemisphere (tumor bearing) [3]: 20.7 ± 5.05 ng/g
[Liver] ± SD [3]: 1653.4 ± 163.6 ng/g
[Plasma] ± SD (GS832-PDX NOD/SCID mice, single s.c. dose 1.5 mg/kg, 15 min (Table 1), 1.5 mg/kg): 396.3 ± 58.7 ng/mL
[Plasma] ± SD (GS832-PDX NOD/SCID mice, single s.c. dose 1.5 mg/kg, 60 min (Table 1, n = 9), 1.5 mg/kg): 165.7 ± 28.7 ng/mL
[Plasma] ± SD (GS832-PDX NOD/SCID mice, single s.c. dose 1.5 mg/kg, 240 min (Table 1), 1.5 mg/kg): 23.9 ± 2.86 ng/mL
[Brain] ± SD, right hemisphere (tumor bearing) [4]: 18.0 ± 6.3 ng/g
[Liver] ± SD [4]: 680.0 ± 155.9 ng/g
[Brain]/[Plasma] Ratio ± SD (GS832-PDX, 60 min, single s.c. dose 1.5 mg/kg, 1.5 mg/kg): 0.10 ± 0.05
[Liver] ± SD (GS832-PDX, 240 min, single s.c. dose 1.5 mg/kg, n = 5, 1.5 mg/kg): 190.1 ± 47.8 ng/g
[Brain]/[Plasma] Ratio ± SD (GS832-PDX, 240 min, single s.c. dose 1.5 mg/kg, 1.5 mg/kg): 0.50 ± 0.33
brain total mean concentration lower than in the liver [5]: approximately 40 fold
concentrations in tumor-bearing hemisphere versus contralateral hemisphere [5]: not significantly different
reduction in plasma concentration from peak (15 min) by 4 h (GS832 tumor-bearing mice, single s.c. dose 1.5 mg/kg): 17 fold
OMA concentrations in tumor-bearing versus contralateral hemispheres (any of the tested models (GS832, GS607, GBM8)): did not detect a significant difference
concentration at 60 min (female, NOD/SCID, mouse, brain tumor, sc, 1.5 mg/kg, GBM8 PDX, 60 min, single s.c. dose 1.5 mg/kg, read-out: measured brain tumor concentration expressed): 82.5 nM
concentration at 60 min (female, NOD/SCID, mouse, brain tumor, sc, 1.5 mg/kg, GS607-PDX, 60 min, single s.c. dose 1.5 mg/kg, read-out: measured brain tumor concentration expressed): 37.9 nM
concentration at 60 min (female, NOD/SCID, mouse, brain tumor, sc, 1.5 mg/kg, GS832-PDX, 60 min, single s.c. dose 1.5 mg/kg, read-out: measured brain tumor concentration expressed): 33 nM
concentration at 60 min (female, NOD/SCID, mouse, brain, right hemisphere (non-tumor-bearing), sc, 1.5 mg/kg, naïve non-tumor-bearing mice, 60 min, single s.c. dose 1.5 mg/kg, n = 2, read-out: [Brain] ± SD, right hemisphere (non-tumor-bearing)): 16.4 ± 2.9 ng/g
concentration at 60 min (female, NOD/SCID, mouse, brain, right hemisphere (tumor bearing), sc, 1.5 mg/kg, GBM8 PDX, 60 min, single s.c. dose 1.5 mg/kg, n = 6, read-out: [Brain] ± SD, right hemisphere (tumor bearing)): 45 ± 20 ng/g
concentration at 60 min (female, NOD/SCID, mouse, brain, right hemisphere (tumor bearing), sc, 1.5 mg/kg, GS607-PDX, 60 min, single s.c. dose 1.5 mg/kg, n = 4, read-out: [Brain] ± SD, right hemisphere (tumor bearing)): 21 ± 5 ng/g
concentration at 60 min (female, NOD/SCID, mouse, brain, right hemisphere (tumor bearing), sc, 1.5 mg/kg, GS832-PDX, 60 min, single s.c. dose 1.5 mg/kg, n = 5, read-out: [Brain] ± SD, right hemisphere (tumor bearing)): 18 ± 6 ng/g
concentration at 120 min (female, NOD/SCID, mouse, brain, right hemisphere (tumor bearing), sc, 1.5 mg/kg, GS832-PDX, 120 min, single s.c. dose 1.5 mg/kg, n = 5, read-out: [Brain] ± SD, right hemisphere (tumor bearing)): 20.8 ± 16.9 ng/g
concentration at 240 min (female, NOD/SCID, mouse, brain, right hemisphere (tumor bearing), sc, 1.5 mg/kg, GS832-PDX, 240 min, single s.c. dose 1.5 mg/kg, n = 5, read-out: [Brain] ± SD, right hemisphere (tumor bearing)): 11.6 ± 6.4 ng/g
Kp at 60 min (female, NOD/SCID, mouse, brain, sc, 1.5 mg/kg, GBM8 PDX, 60 min, single s.c. dose 1.5 mg/kg, read-out: [Brain]/[Plasma] Ratio ± SD): 0.11
Kp at 60 min (female, NOD/SCID, mouse, brain, sc, 1.5 mg/kg, GS607-PDX, 60 min, single s.c. dose 1.5 mg/kg, n = 2 blood samples, read-out: [Brain]/[Plasma] Ratio ± SD): 0.23
Kp at 60 min (female, NOD/SCID, mouse, brain, sc, 1.5 mg/kg, GS832-PDX, 60 min, single s.c. dose 1.5 mg/kg, read-out: [Brain]/[Plasma] Ratio ± SD): 0.1
Kp at 120 min (female, NOD/SCID, mouse, brain, sc, 1.5 mg/kg, GS832-PDX, 120 min, single s.c. dose 1.5 mg/kg, read-out: [Brain]/[Plasma] Ratio ± SD): 0.37 ± 0.24
Kp at 240 min (female, NOD/SCID, mouse, brain, sc, 1.5 mg/kg, GS832-PDX, 240 min, single s.c. dose 1.5 mg/kg, read-out: [Brain]/[Plasma] Ratio ± SD): 0.5
Kp at 60 min (female, NOD/SCID, mouse, brain, sc, 1.5 mg/kg, naïve non-tumor-bearing mice, 60 min, single s.c. dose 1.5 mg/kg, read-out: [Brain]/[Plasma] Ratio ± SD): 0.05 ± 0.01
Kp at 60 min (female, NOD/SCID, mouse, brain, subcutaneous, 1.5 mg/kg, stated as at 60 min, range across PDX models, read-out: B/P ratio across the PDX models): 0.12 to 0.5
concentration at 60 min (female, NOD/SCID, mouse, liver, sc, 1.5 mg/kg, GBM8 PDX, 60 min, single s.c. dose 1.5 mg/kg, n = 6, read-out: [Liver] ± SD): 998 ± 254 ng/g
concentration at 60 min (female, NOD/SCID, mouse, liver, sc, 1.5 mg/kg, GS607-PDX, 60 min, single s.c. dose 1.5 mg/kg, n = 4, read-out: [Liver] ± SD): 1650 ± 163 ng/g
concentration at 60 min (female, NOD/SCID, mouse, liver, sc, 1.5 mg/kg, GS832-PDX, 60 min, single s.c. dose 1.5 mg/kg, n = 5, read-out: [Liver] ± SD): 680 ± 156 ng/g
concentration at 120 min (female, NOD/SCID, mouse, liver, sc, 1.5 mg/kg, GS832-PDX, 120 min, single s.c. dose 1.5 mg/kg, n = 5, read-out: [Liver] ± SD): 338 ± 94 ng/g
concentration at 240 min (female, NOD/SCID, mouse, liver, sc, 1.5 mg/kg, GS832-PDX, 240 min, single s.c. dose 1.5 mg/kg, n = 5, read-out: [Liver] ± SD): 190 ± 48 ng/g
concentration at 60 min (female, NOD/SCID, mouse, liver, sc, 1.5 mg/kg, naïve non-tumor-bearing mice, 60 min, single s.c. dose 1.5 mg/kg, n = 2, read-out: [Liver] ± SD): 715.9 ± 4.6 ng/g
concentration at 60 min (female, NOD/SCID, mouse, plasma, sc, 1.5 mg/kg, GBM8 PDX, 60 min, single s.c. dose 1.5 mg/kg, n = 6, read-out: [Plasma] ± SD): 391 ± 58 ng/mL
concentration at 60 min (female, NOD/SCID, mouse, plasma, sc, 1.5 mg/kg, GS607-PDX, 60 min, single s.c. dose 1.5 mg/kg, n = 2 blood samples, read-out: [Plasma] ± SD): 88 ± 9 ng/mL
concentration at 15 min (female, NOD/SCID, mouse, plasma, sc, 1.5 mg/kg, GS832-PDX NOD/SCID mice, single s.c. dose 1.5 mg/kg, 15 min (Table 1), read-out: [Plasma] ± SD): 396 ± 59 ng/mL
concentration at 30 min (female, NOD/SCID, mouse, plasma, sc, 1.5 mg/kg, GS832-PDX NOD/SCID mice, single s.c. dose 1.5 mg/kg, 30 min (Table 1), read-out: [Plasma] ± SD): 282 ± 65.4 ng/mL
concentration at 60 min (female, NOD/SCID, mouse, plasma, sc, 1.5 mg/kg, GS832-PDX NOD/SCID mice, single s.c. dose 1.5 mg/kg, 60 min (Table 1, n = 9), read-out: [Plasma] ± SD): 166 ± 29 ng/mL
concentration at 120 min (female, NOD/SCID, mouse, plasma, sc, 1.5 mg/kg, GS832-PDX NOD/SCID mice, single s.c. dose 1.5 mg/kg, 120 min (Table 1, n = 10), read-out: [Plasma] ± SD): 57.8 ± 10.8 ng/mL
concentration at 240 min (female, NOD/SCID, mouse, plasma, sc, 1.5 mg/kg, GS832-PDX NOD/SCID mice, single s.c. dose 1.5 mg/kg, 240 min (Table 1), read-out: [Plasma] ± SD): 24 ± 3 ng/mL
concentration at 60 min (female, NOD/SCID, mouse, plasma, sc, 1.5 mg/kg, GS832-PDX, 60 min, single s.c. dose 1.5 mg/kg, n = 5 (Table 2), read-out: [Plasma] ± SD): 186 ± 21.1 ng/mL
concentration at 120 min (female, NOD/SCID, mouse, plasma, sc, 1.5 mg/kg, GS832-PDX, 120 min, single s.c. dose 1.5 mg/kg, n = 5 (Table 2), read-out: [Plasma] ± SD): 55.6 ± 10.7 ng/mL
concentration at 240 min (female, NOD/SCID, mouse, plasma, sc, 1.5 mg/kg, GS832-PDX, 240 min, single s.c. dose 1.5 mg/kg, n = 5 (Table 2), read-out: [Plasma] ± SD): 23.5 ± 0.7 ng/mL
concentration at 60 min (female, NOD/SCID, mouse, plasma, sc, 1.5 mg/kg, naïve non-tumor-bearing mice, 60 min, single s.c. dose 1.5 mg/kg, n = 2, read-out: [Plasma] ± SD): 224 ± 12 ng/mL
Tmax (female, NOD/SCID, mouse, plasma, sc, GS832 tumor-bearing mice, single s.c. dose 1.5 mg/kg, read-out: time of peak concentration in plasma (converted)): 15 min
half-life (female, NOD/SCID, mouse, sc, plasma, GS832 tumor-bearing mice, single s.c. dose 1.5 mg/kg): 50 min
[Brain] ± SD, right hemisphere (non-tumor-bearing) (naïve non-tumor-bearing mice, 60 min, single s.c. dose 1.5 mg/kg, n = 2, 1.5 mg/kg): 16.4 ± 2.9 ng/g

— publication PMC11678797, “A Repurposed Drug Selection Pipeline to Identify CNS-Penetrant Drug Candidates for Glioblastoma” (Pharmaceuticals, 2024)
